In publication PMC9181924, “Antiproliferative and Proapoptotic Effects of Phenanthrene Derivatives Isolated from Bletilla striata on A549 Lung Cancer Cells” (Molecules, 2022):
Values joined by “and” are separate entries in the source; they are usually repeats but may differ in a detail not shown here. Identical values can stand only once. Like-named read-outs stand apart in the source and are kept apart here.

Experiments:
A549 cells [1] = test: MTT cytotoxicity assay on A549 cells; type: cell-based, human; conditions: mean ± SD, n = 3, read-out: IC50, cytotoxicity against A549 cells
Text: (§1) The purity of the tested compounds was more than 98%. The cytotoxic effects of isolated phenanthrenes on A549 and BEAS-2B cells were examined by MTT experiments as described in our previous report.

[2] = MTT cytotoxicity assay on BEAS-2B cells; type: cell-based; conditions: BEAS-2B cells (normal human lung cells), BEAS-2B normal human lung cells, read-out: IC50, cytotoxic effect on BEAS-2B cells
Text: as §1

A549 cells [3] = test: EdU proliferation experiment; type: cell-based, human; conditions: 48 h, control 100%
Procedure: The cells were digested by trypsin and cultivated in 96-well plates (3.5 × 10^3 cells per well) for 24 h. They were incubated with compound 1 (3.13, 6.25, and 12.5 μM) for 48 h. Next, prepared EdU-labeling solution (10 µM) was used to stain the cells in an incubator at 37 °C for 2 h. The cells were fixed for 15 min with 4% cold paraformaldehyde. After that, Triton X-100 (0.3%) and Click-iT reaction cocktail were successively used to handle cells. Finally, DAPI staining was applied to the cells to counterstain them. A Leica DMI3000B inverted fluorescence microscope (Leica, Wetzlar, Germany) was used to capture the fluorescent images. In addition, to count the cells, ImageJ software (version 1.8.0) (National Institutes of Health, Bethesda, MD, USA) was used. EdU positive cells (%) = (green EdU-stained cells/blue DAPI-stained cells) × 100.

A549 cells [4] = test: Cell cycle analysis by flow cytometry; type: cell-based, human; conditions: 48 h; for percentage of G0/G1 phase cells / percentage of S phase cells: Figure 3C; for percentage of G2/M phase cells: untreated control 7.41 ± 0.79%
Procedure: According to the manufacture’s instructions, the cells were treated with compound 1 (3.13, 6.25, and 12.5 μM) for 48 h. Then, they were cultured with 500 μL staining solution (RNase A:PI = 1:9) for 1 h at room temperature without light after fixation with 70% pre-chilled ethanol for 2 h. The DNA content was instantly detected with a BD FACSCanto II flow cytometer (BD Biosciences, Franklin Lakes, NJ, USA).

A549 cells [5] = test: Wound healing assay; type: cell-based, human; conditions: 24 h, control 56.46 ± 4.46%
Procedure: Cells were placed in 6-well plates for the wound healing test. The scratches were formed using a sterile 200-µL pipette tip when the cells treated with compound 1 (3.13, 6.25, and 12.5 μM) had grown to 90% confluence. After a 24-h incubation, the images were obtained with the Leica microscope and the scratch area was calculated with the ImageJ.

A549 cells [6] = test: Transwell migration assay; type: cell-based, human; conditions: 24 h, control 100%
Procedure: The migratory effect of compound 1 (3.13, 6.25, and 12.5 μM) on A549 cells was further detected by using transwell chambers. Briefly, the cells treated with compound 1 were placed into the upper wells, while the medium with 10% FBS was added to the bottom wells. After a 24-h incubation, non-migrated cells were cleaned up, and the migrated cells were fixed for 30 min with 4% paraformaldehyde and dyed by 0.1% crystal violet. The images and the cell numbers were obtained by the Leica microscope and ImageJ, respectively.

A549 cells [7] = test: Apoptosis by flow cytometry (Annexin V/PI); type: cell-based, human; conditions: 48-h treatment, control 1.21 ± 0.37%
Procedure: Quadrants 2 (Annexin V+/PI+) and 3 (Annexin V+/PI−) pointed to the percentage of apoptotic cells. As for the control group, the apoptosis rate was only 1.21 ± 0.37%. […] The data disclosed that compound 1 greatly promoted the apoptosis of A549 cells, especially in the high-concentration group (12.5 µM).
The A549 cells were treated with compound 1 (3.13, 6.25, and 12.5 μM), and the cell apoptosis was detected by flow cytometry assay as described in our previous report.

Akt = test: Western blot, Akt phosphorylation in A549 cells; type: cell-based, human; conditions: A549, 3.13, 6.25, and 12.5 µM, 48 h; p < 0.05 at 3.13 μM, p < 0.01 at 6.25 and 12.5 μM vs control
Procedure: (§2) SDS–PAGE and PVDF membranes were used to separate and transfer the protein, respectively. […] The membranes were washed with TBST and incubated with an HRP-conjugated secondary antibody for 1 h at 37 °C. Finally, the protein bands were detected with a Tanon 5200 chemiluminescent imaging system (Tanon, Shanghai, China).

MEK1/2 = test: Western blot, MEK1/2 phosphorylation in A549 cells; type: cell-based, human; conditions: A549, 3.13, 6.25, and 12.5 μM, 48 h; p < 0.01 vs control
Procedure: as §2

ERK1/2 = test: Western blot, ERK1/2 phosphorylation in A549 cells; type: cell-based, human; conditions: A549, 3.13, 6.25, and 12.5 µM, 48 h; p < 0.05 at 3.13 μM, p < 0.01 at 6.25 and 12.5 μM vs control
Procedure: as §2

Bcl-2 = test: Western blot, Bcl-2 expression in A549 cells; type: cell-based, human; conditions: A549, 3.13, 6.25, and 12.5 μM, 48 h; p < 0.01 vs control
Procedure: as §2

Bax = test: Western blot, Bax expression in A549 cells; type: cell-based, human; conditions: A549, 6.25 and 12.5 μM, 48 h; p < 0.01 vs control
Procedure: as §2

SMILES: COc1cc(O)cc2c1-c1ccc(O)c(-c3c(O)cc(OC)c4c3CCc3cc(O)ccc3-4)c1CC2 [Compound 1, 4,5′-dimethoxy-9,9′,10,10′-tetrahydro-[1,1′-biphenanthrene]-2,2′,7,7′-tetraol]
- IC50 (A549 cells [1]; A549 cells): 6.86 ± 0.71 µM
- IC50 (A549 cells [1]; Homo sapiens, A549, A549 cells): < 10 µM
- IC50 [2]: 15.2 ± 1.62 µM
- percentage of EdU-positive cells (A549 cells [3]; A549, 3.13 μM): 67.66 ± 4.51%
- percentage of EdU-positive cells (A549 cells [3]; A549, 6.25 μM): 56.33 ± 4.50%
- percentage of EdU-positive cells (A549 cells [3]; A549, 12.5 μM): 34.01 ± 4.58%
- percentage of G0/G1 phase cells (A549 cells [4]; A549, 3.13 μM): 76.42%
- percentage of S phase cells (A549 cells [4]; A549, 3.13 μM): 11.73%
- percentage of G2/M phase cells (A549 cells [4]; A549, 3.13 μM): 11.85 ± 1.26% and 11.85%
- percentage of G0/G1 phase cells (A549 cells [4]; A549, 6.25 μM): 70.16%
- percentage of S phase cells (A549 cells [4]; A549, 6.25 μM): 15.31%
- percentage of G2/M phase cells (A549 cells [4]; A549, 6.25 μM): 14.53 ± 1.75% and 14.53%
- percentage of G0/G1 phase cells (A549 cells [4]; A549, 12.5 μM): 50.11%
- percentage of S phase cells (A549 cells [4]; A549, 12.5 μM): 22.81%
- percentage of G2/M phase cells (A549 cells [4]; A549, 12.5 μM): 27.08 ± 2.65% and 27.08%
- migration rate (wound healing) (A549 cells [5]; A549, 3.13 µM): 31.10 ± 2.92%
- migration rate (wound healing) (A549 cells [5]; A549, 6.25 µM): 15.23 ± 1.81%
- migration rate (wound healing) (A549 cells [5]; A549, 12.5 µM): 11.01 ± 1.81%
- migrated cell numbers (transwell) (A549 cells [6]; A549, 3.13 µM): 72.09 ± 4.65%
- migrated cell numbers (transwell) (A549 cells [6]; A549, 6.25 µM): 29.45 ± 2.92%
- migrated cell numbers (transwell) (A549 cells [6]; A549, 12.5 µM): 10.19 ± 1.25%
- apoptosis rate (Annexin V+/PI+ and Annexin V+/PI−) (A549 cells [7]; A549, 3.13 µM): 2.57 ± 0.53%
- apoptosis rate (Annexin V+/PI+ and Annexin V+/PI−) (A549 cells [7]; A549, 6.25 µM): 12.25 ± 2.21%
- apoptosis rate (Annexin V+/PI+ and Annexin V+/PI−) (A549 cells [7]; A549, 12.5 µM): 49.79 ± 8.54%
- expression ratio of p-Akt/Akt (Akt): significantly suppressed
- expression ratio of p-MEK/MEK (MEK1/2): significantly suppressed
- expression ratio of p-ERK/ERK (ERK1/2): significantly suppressed
- Bcl-2/Bax ratio (Bcl-2): reduced
- Bcl-2 protein levels (Bcl-2): significantly decreased
- Bax protein levels (Bax): increased

SMILES: COc1cc(O)c(-c2c(O)cc3c(c2OC)-c2ccc(O)c(Cc4ccc(O)cc4)c2CC3)c2c1-c1ccc(O)cc1CC2 [Compound 2, 4,4′-dimethoxy-8′-(p-hydroxybenzyl)-9,9′,10,10′-tetrahydro-[1,3′-biphenanthrene]-2,2′,7,7′-tetraol]
- IC50 (A549 cells [1]; A549 cells): 8.75 ± 0.61 µM
- IC50 (A549 cells [1]; Homo sapiens, A549, A549 cells): < 10 µM

SMILES: COc1cc(O)c(-c2c(O)cc3c(c2OC)-c2ccc(O)cc2CC3)c2c1-c1ccc(O)cc1CC2 [Compound 3, blestrianol A]
- IC50 (A549 cells [1]; Homo sapiens, A549, A549 cells): 10.5 ± 2.55 µM

SMILES: COc1cc(O)cc2c1-c1cc(-c3c(O)cc(OC)c4c3CCc3cc(O)ccc3-4)c(O)cc1CC2 [Compound 4, gymconopin C]
- IC50 (A549 cells [1]; A549 cells): 9.91 ± 0.68 µM
- IC50 (A549 cells [1]; Homo sapiens, A549, A549 cells): < 10 µM

SMILES: COc1c(O)ccc2c1ccc1c(-c3c(O)cc(OC)c4c3ccc3cc(O)ccc34)c(O)cc(OC)c12 [Compound 5, bleformin G]
- IC50 (A549 cells [1]; Homo sapiens, A549, A549 cells): > 100 µM

SMILES: COc1cc(O)c(-c2c(O)cc(OC)c3c2ccc2cc(O)ccc23)c2ccc3cc(O)ccc3c12 [Compound 6, blestriarene C]
- IC50 (A549 cells [1]; A549 cells): 9.45 ± 0.52 µM
- IC50 (A549 cells [1]; Homo sapiens, A549, A549 cells): < 10 µM

SMILES: COc1cc(O)c(Cc2ccc(O)cc2)c2c1-c1ccc(Oc3c(O)cc(OC)c4c3CCc3cc(O)ccc3-4)cc1CC2 [Compound 8, blestanol C]
- IC50 (A549 cells [1]; A549 cells): 8.62 ± 0.64 µM
- IC50 (A549 cells [1]; Homo sapiens, A549, A549 cells): < 10 µM

SMILES: COc1cc(O)cc2c1-c1ccc(O)cc1CC2 [Compound 9, 2,7-dihydroxy-4-methoxy-9,10-dihydrophenanthrene]
- IC50 (A549 cells [1]; Homo sapiens, A549, A549 cells): 51.5 ± 1.87 µM

SMILES: COc1cc(O)c(O)c2c1-c1ccc(O)cc1CC2 [Compound 10, 4-methoxy-9,10-dihydrophenanthrene-1,2,7-triol]
- IC50 (A549 cells [1]; Homo sapiens, A549, A549 cells): 16.3 ± 2.22 µM

SMILES: COc1cc(O)c(Cc2ccc(O)cc2)c2c1-c1ccc(O)cc1CC2 [Compound 12, 1-(p-hydroxybenzyl)-4-methoxy-9,10-dihydrophenanthrene-2,7-diol]
- IC50 (A549 cells [1]; Homo sapiens, A549, A549 cells): 33.3 ± 0.49 µM

SMILES: COc1ccc(Cc2c(O)cc(O)c3c2CCc2cc(OC)ccc2-3)cc1 [Compound 13, pleioanthrenin]
- IC50 (A549 cells [1]; A549 cells): 9.52 ± 0.47 µM
- IC50 (A549 cells [1]; Homo sapiens, A549, A549 cells): < 10 µM

SMILES: COc1cc(O)c(Cc2ccc(O)cc2)c2c1-c1cc(Cc3ccc(O)cc3)c(O)cc1CC2 [Compound 14, 1,6-bis(p-hydroxybenzyl)-4-methoxy-9,10-dihydrophenanthrene-2,7-diol]
- IC50 (A549 cells [1]; Homo sapiens, A549, A549 cells): 12 ± 0.79 µM

SMILES: COc1cc2ccc3cc(O)ccc3c2c(OC)c1O [Compound 16, 3,7-dihydroxy-2,4-dimethoxyphenanthrene]
- IC50 (A549 cells [1]; Homo sapiens, A549, A549 cells): 63.8 ± 4.67 µM

SMILES: COc1cc(O)c(Cc2ccc(O)cc2)c2ccc3cc(O)ccc3c12 [Compound 17, 1-(p-hydroxybenzyl)-4-methoxyphenanthrene-2,7-diol]
- IC50 (A549 cells [1]; Homo sapiens, A549, A549 cells): 32.6 ± 2.33 µM
